Results as given in article PMC9982066, “Inhibition of Ehrlichia chaffeensis infection by cell-permeable macrocyclic peptides that bind type IV secretion effector Etf-1” (PNAS Nexus, 2023).
“Also recorded” adds a separate entry of the source. Starred links: 1 amine or outer side, 2 acyl side, 3 side chain; linkers in the order of their positions; H or OH if unused. Positions of bridges follow the written chain, without caps; N, C: chain ends. Non-standard residues stand in square brackets, D forms with d. Residues, ends and D or L forms follow the SMILES beside them. Trimesoyl = O=C(c1cc(C(=O)[*:2])cc(C(=O)[*:3])c1)[*:1]; d2Nal = N[C@H](Cc1ccc2ccccc2c1)C(=O)O; Dap = NC[C@H](N)C(=O)O

Assays:
Etf-1 = Etf-1 (Ehrlichia chaffeensis, UniProt Q2GG12); experiment: FP assay of Etf-1 binding with FAM-labeled peptides
BECN1 binding to Etf-1 = experiment: streptavidin magnetic beads pull-down of BECN1 with biotin-Etf-1, Western blot; assay type: biochemical; conditions: 10 µM peptide
[1] = serum stability assay (UPLC); assay type: in vitro ADME; conditions: 25% (v/v) in DPBS; 25% human serum, 37°C, after 22 h; read-out: degradation
Protocol: In comparison, the linear peptide Tat (cell-permeable peptide of HIV) was completely degraded within the first 120 min of incubation (Fig. 4B).
Human serum was diluted to 25% (v/v) in sterile DPBS and equilibrated at 37°C for 15 min. Peptides were added to the diluted serum to a final concentration of 20 μM and incubated at 37°C with gentle mixing. At designated time points, 30 μL aliquots were withdrawn and mixed with 30 μL of 15% trichloroacetic acid in MeOH (w/v) and 30 μL of MeCN and stored at 4°C overnight to completely precipitate the serum proteins. Next, each aliquot was centrifuged (15,000g, 5 min, 4°C) and 14 μL of the supernatant was injected in an UPLC equipped with an analytical Waters Acquity UPLC BEH C18 column (1.7 μm, 2.1 mm I.D., 100 mm length) and an inline UV-Vis detector and a single quadrupole mass detector. The column was eluted with a linear gradient of 20–50% MeCN in ddH2O containing 0.1% TFA. A UV/Vis detector at 214 nm and the mass spec quantifying the ion counts corresponding to the [M + 3H]^3+ ion of the analytes were used to analyze the samples. The area under the peak of interest was obtained by integration, normalized to that of the peptide at t = 0, and plotted as a function of the incubation time to determine the serum half-life of the peptide.

E. chaffeensis = experiment: morphological examination of E. chaffeensis infection of THP-1 cells by Diff-Quik staining

Sequence of Etf-1 (Q2GG12 entry or part of it): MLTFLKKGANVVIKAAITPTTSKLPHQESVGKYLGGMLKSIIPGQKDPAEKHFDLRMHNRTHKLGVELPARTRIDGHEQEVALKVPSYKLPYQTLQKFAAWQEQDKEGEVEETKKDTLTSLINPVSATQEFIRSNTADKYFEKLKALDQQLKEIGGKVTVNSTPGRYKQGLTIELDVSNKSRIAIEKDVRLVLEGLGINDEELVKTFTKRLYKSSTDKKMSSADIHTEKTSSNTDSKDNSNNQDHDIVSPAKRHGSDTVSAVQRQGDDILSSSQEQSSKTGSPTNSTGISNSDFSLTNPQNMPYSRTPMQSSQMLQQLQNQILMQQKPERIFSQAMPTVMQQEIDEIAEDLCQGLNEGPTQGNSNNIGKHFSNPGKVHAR

CC(C)C[C@H]1NC(=O)[C@H](CO)NC(=O)[C@H]2CCCN2C(=O)[C@H](CCC(N)=O)NC(=O)[C@H](Cc2c[nH]cn2)NC(=O)[C@H](Cc2ccc(O)cc2)NC(=O)c2cc3cc(c2)C(=O)NC[C@H](NC1=O)C(=O)N[C@@H](Cc1ccccc1)C(=O)N[C@H](Cc1ccc2ccccc2c1)C(=O)N[C@H](CCCNC(=N)N)C(=O)N[C@@H](CCCNC(=N)N)C(=O)N[C@H](CCCNC(=N)N)C(=O)N[C@@H](CCCNC(=N)N)C(=O)N[C@H](C(N)=O)CNC3=O [Peptide B7, TMA-Tyr-His-Gln-pro-Ser-leu-Dap-Phe-nal-arg-Arg-arg-Arg-Dap] (YHQ[dP]S[dL][Dap]F[d2Nal][dR]R[dR]R[Dap]-NH2; linker N-7-14 via Trimesoyl)
Kd (Etf-1): 6.5 ± 0.7 µM | disruption of BECN1 binding to Etf-1 (BECN1 binding to Etf-1; compared to DMSO control): disrupted BECN1 binding to Etf-1 | BECN1/Etf-1 Ratio (BECN1 binding to Etf-1; band intensities, DMSO control set as 1, Fig. 8B): 0.20 | metabolised at 22 h, 20 µM [1]: < 20% | E. chaffeensis infection (numbers and sizes of morulae) (E. chaffeensis; THP-1 cells, Fig. S4 (with Figs. 5, S3)): significantly inhibited; also recorded: potent inhibition | cytotoxicity (cell lysis in treated groups) (E. chaffeensis; THP-1 host cells): least cytotoxicity
